Laboratory results reported in paper PMC4661928, “Production of Two Novel Methoxy-Isoflavones from Biotransformation of 8-Hydroxydaidzein by Recombinant Escherichia coli Expressing O-Methyltransferase SpOMT2884 from Streptomyces peucetius” (International Journal of Molecular Sciences, 2015).

Target: T1, SpOMT2884 (Streptomyces peucetius, UniProt T1WTM5)
T1 construct: gene OMT2884; codon-optimised synthetic gene in pETDuet-1 (NdeI/XhoI), expressed in E. coli BL21(DE3); whole-cell biotransformation, not purified
T1 sequence (T1WTM5 1-223): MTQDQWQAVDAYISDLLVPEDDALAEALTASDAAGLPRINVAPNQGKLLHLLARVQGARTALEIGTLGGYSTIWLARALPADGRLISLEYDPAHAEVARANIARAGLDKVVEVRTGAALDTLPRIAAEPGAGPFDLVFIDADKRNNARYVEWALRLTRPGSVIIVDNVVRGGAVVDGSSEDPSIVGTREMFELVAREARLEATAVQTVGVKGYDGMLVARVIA
Test: whole-cell biotransformation, UPLC; products by MS and NMR
Assay type: cell-based
Settings: recombinant E. coli BL21(DE3), 0.1 mM substrate, 37 °C, endogenous SAM; 7-O- and 8-O-methylation

`O=c1c(-c2ccc(O)cc2)coc2c(O)c(O)ccc12` [8-hydroxydaidzein] was tested, and the “whole-cell biotransformation, UPLC; products by MS and NMR” value was “SpOMT2884 catalyzes either 7-O-methylation or 8-O-methylation in 8-hydroxydaidzein”.
